Experimental findings from patent publication US20040220148A1, “5-Membered ring heterocycles as inhibitors of leucocyte adhesion and as VLA-4 antagonists” (Aventis Pharma Deutschland GmbH, priority 1996, published 2004) are described below.

For the assay, the target named is T1, VLA-4 integrins on human U937 cells (interaction between VCAM-1 and VLA-4) (Homo sapiens, UniProt P05556+P13612).
T1 construct: the VLA-4 integrins, are offered in their natural form as surface molecules on human U937 cells; host or cells: U937 cells (VLA-4, endogenous); the partner hVCAM-1(1-3)-IgG came from the supernatant of transfected COS cells (ATCC CRL1651)
Put plainly: U937/VCAM-1 cell adhesion test (adhesion of U937 cells to hVCAM-1(1-3)-IgG). It is filed as cell-based. As to conditions: concentration leading to 50% inhibition of adhesion. The source says: As a test method for the activity of the compounds of the formula I on the interaction between VCAM-1 and VLA-4, an assay which is specific for this interaction is used. The cellular binding components, i.e. the VLA-4 integrins, are offered in their natural form as surface molecules on human U937 cells (ATCC CRL 1593) which belong to the group of leucocytes. As specific binding components, recombinant soluble fusion proteins prepared by genetic engineering and consisting of the extracytoplasmic domains of human VCAM-1 and the constant region of a human immunoglobulin of the subclass IgG1 are used.
Assay for the Measurement of the Adhesion of U937 Cells (ATCC CRL 1593) to hVCAM-1 (1-3)-IgG
1. Preparation of Human VCAM-1(1-3)-IgG and Human CD4-IgG
A genetic construct for the expression of the extracellular domains of human VCAM-1 was employed, associated with the genetic sequence of the heavy chain of human immunoglobulin IgG1 (hinge, CH2 and CH3 regions), from Dr. Brian Seed, Massachusetts General Hospital, Boston, USA. The soluble fusion protein hVCAM-1(1-3)-IgG contained the three amino-terminal extracellular immunoglobulin-like domains of human VCAM-1 (Damle and Aruffo, Proc. Natl. Acad. Sci. USA 1991, 88, 6403). CD4-IgG (Zettlmeissl et al, DNA and Cell Biology 1990, 9, 347) served as a fusion protein for negative controls. The recombinant proteins were expressed as soluble proteins after DEAE/dextran-mediated DNA-transfection in COS cells (ATCC CRL1651) according to standard procedures (Ausubel et al., Current protocols in molecular biology, John Wiley & Sons, Inc., 1994).
2. Assay for Measurement of the Adhesion of U937 Cells to hVCAM-1(1-3)-IgG
2.1 96-well microtiter test plates (Nunc Maxisorb) were incubated at room temperature for 1 hour with 100 μl/well of a goat-anti-human IgG antibody solution (10 μg/ml in 50 mM tris, pH 9.5). After removing the antibody solution, washing was carried out once with PBS.
2.2 150 μl/well of a blocking buffer (1% BSA in PBS) were incubated on the plates at room temperature for 0.5 hours. After removing the blocking buffer, washing was carried out once with PBS.
2.3 100 μl per well of a cell culture supernatant of transfected COS cells were incubated on the plates at room temperature for 1.5 hours. The COS cells were transfected with a plasmid which codes for the three N-terminal immunoglobulin-like domains of VCAM-1, coupled to the Fc part of human IgG1 (hVCAM-1(1-3)-IgG). The content of hVCAM-1 (1-3)-IgG was about […]. After removing the culture supernatant, washing was carried out once with PBS.
2.4 The plates were incubated at room temperature for 20 minutes with […] of Fc receptor blocking buffer (1 mg/ml of γ-globulin, 100 mM NaCl, 100 μM MgCl2, 100 μM MnCl2, 100 μM CaCl2, 1 mg/ml BSA in 50 mM HEPES, pH 7.5). After removing the Fc receptor blocking buffer, washing was carried out once with PBS.
2.5 20 μl of binding buffer (100 mM NaCl, 100 μM MgCl2, 100 μM MgCl2, 100 μM CaCl2, 1 mg/ml BSA in 50 mM HEPES, pH 7.5), were initially introduced, the substances to be tested were added in 10 μl of binding buffer and the mixture was incubated for 20 minutes. As controls, antibodies against VCAM-1 (BBT, No. BBA6) and against VLA-4
(Immunotech, No. 0764) were used.
2.6 U937 cells were incubated in Fc receptor blocking buffer for 20 minutes and then pipetted in at a concentration of 1×10^6/ml and in an amount of 100 μl per well ([…]).
2.7 The plates were slowly immersed at an angle of 45° in stop buffer (100 mM NaCl, 100 μM MgCl2, 100 μM MnCl2, 100 μM CaCl2 in 25 mM Tris, pH 7.5) and shaken off. The process was repeated.
2.8 50 μl/well of a dye solution (16.7 μg/ml of Hoechst dye 33258, 4% formaldehyde, 0.5% Triton X-100 in PBS) were then incubated on the plates for 15 minutes.
2.9 The plates were shaken off and slowly immersed at an angle of 45° in stop buffer (100 mM NaCl, 100 μM MgCl2, 100 μM MnCl2, 100 μM CaCl2 in 25 mM Tris, pH 7.5). The process was repeated. […]

The IC50 is the concentration at which inhibition is half-maximal. Higher therefore signals a need for much substance.

T1 sequence (P13612 34-1032): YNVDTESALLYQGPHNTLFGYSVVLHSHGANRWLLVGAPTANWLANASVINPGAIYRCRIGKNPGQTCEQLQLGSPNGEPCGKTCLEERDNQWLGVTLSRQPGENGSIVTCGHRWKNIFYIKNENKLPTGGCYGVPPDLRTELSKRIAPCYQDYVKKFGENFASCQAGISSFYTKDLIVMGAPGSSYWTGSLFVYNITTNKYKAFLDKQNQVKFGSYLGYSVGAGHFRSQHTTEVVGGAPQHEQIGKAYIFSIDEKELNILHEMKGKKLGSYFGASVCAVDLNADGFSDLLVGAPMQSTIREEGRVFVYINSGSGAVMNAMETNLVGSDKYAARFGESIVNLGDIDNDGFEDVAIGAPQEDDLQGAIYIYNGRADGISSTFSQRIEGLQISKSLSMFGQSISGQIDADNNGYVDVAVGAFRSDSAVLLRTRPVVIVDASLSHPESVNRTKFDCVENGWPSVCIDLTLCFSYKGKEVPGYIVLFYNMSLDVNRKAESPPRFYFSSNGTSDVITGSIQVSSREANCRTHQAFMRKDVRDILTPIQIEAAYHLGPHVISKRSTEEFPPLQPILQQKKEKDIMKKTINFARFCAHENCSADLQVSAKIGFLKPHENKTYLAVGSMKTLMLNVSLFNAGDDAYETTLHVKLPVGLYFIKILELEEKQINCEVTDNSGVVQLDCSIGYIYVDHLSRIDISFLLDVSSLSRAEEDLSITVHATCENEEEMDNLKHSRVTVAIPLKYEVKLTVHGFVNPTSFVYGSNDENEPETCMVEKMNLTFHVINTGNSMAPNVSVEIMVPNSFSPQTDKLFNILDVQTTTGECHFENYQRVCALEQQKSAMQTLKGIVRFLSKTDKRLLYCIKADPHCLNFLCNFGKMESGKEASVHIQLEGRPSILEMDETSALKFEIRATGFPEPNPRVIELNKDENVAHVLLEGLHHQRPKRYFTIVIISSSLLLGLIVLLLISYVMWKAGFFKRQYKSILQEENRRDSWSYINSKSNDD
T1 sequence (P05556 21-798): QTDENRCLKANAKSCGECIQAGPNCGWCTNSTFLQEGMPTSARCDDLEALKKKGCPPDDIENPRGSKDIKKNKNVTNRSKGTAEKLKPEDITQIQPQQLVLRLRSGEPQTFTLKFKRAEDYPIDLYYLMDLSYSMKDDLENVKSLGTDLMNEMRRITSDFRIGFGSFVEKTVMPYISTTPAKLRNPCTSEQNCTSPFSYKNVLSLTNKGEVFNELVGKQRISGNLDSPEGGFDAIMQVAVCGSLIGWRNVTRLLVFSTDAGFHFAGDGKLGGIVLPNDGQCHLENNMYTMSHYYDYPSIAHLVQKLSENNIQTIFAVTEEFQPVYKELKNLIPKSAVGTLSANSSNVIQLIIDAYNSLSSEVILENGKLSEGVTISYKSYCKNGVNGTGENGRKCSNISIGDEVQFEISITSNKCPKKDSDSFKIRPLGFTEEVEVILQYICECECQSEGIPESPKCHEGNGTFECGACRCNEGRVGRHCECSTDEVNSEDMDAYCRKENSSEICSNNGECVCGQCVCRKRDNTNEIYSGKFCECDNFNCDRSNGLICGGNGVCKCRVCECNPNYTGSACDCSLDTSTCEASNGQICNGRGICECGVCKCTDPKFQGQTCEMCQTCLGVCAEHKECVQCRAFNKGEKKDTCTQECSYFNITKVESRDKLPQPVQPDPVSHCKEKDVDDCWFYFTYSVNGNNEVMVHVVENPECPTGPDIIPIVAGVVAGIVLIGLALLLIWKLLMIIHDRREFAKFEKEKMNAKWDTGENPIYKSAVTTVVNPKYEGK

The compound `Cc1ccc(CN2C(=O)N(CC(=O)N[C@@H](CC(=O)O)C(=O)N[C@H](C(=O)O)c3ccccc3)C(=O)C2(C)c2ccc(C(=N)N)cc2)cc1` (mixture of isomers) [Example 12, ((R,S)-4-(4-(Amino-imino-methyl)phenyl)-3-(4-methylbenzyl)-4-methyl-2,5-dioxoimidazolidin-1-yl)acetyl-L-aspartyl-L-phenylglycine] gave an IC50 of 2.7 µM.
For the compound `C[C@]1(c2ccc(C(=N)N)cc2)C(=O)N(CC(=O)N[C@@H](CC(=O)O)C(=O)N[C@H](C(=O)O)c2ccccc2)C(=O)N1Cc1ccccc1` [Example 63], the IC50 came out at 0.22 µM.
Consider `Cc1c(C)c(C)c(CN2C(=O)N(CC(=O)N[C@@H](CC(=O)O)C(=O)N[C@H](C(=O)O)c3ccccc3)C(=O)C2(C)c2ccc(C(=N)N)cc2)c(C)c1C` (mixture of isomers) [Example 17, ((R,S)-4-(4-(Amino-imino-methyl)phenyl)-3-(pentamethylbenzyl)-4-methyl-2,5-dioxoimidazolidin-1-yl)acetyl-L-aspartyl-L-phenylglycine], for which 79 µM corresponded to half-maximal inhibition (IC50).
As for `CC1(c2ccc(C(=N)N)cc2)C(=O)N(CC(=O)N[C@@H](CC(=O)O)C(=O)N[C@H](C(=O)O)c2ccccc2)C(=O)N1Cc1ccccc1` (stereo partly drawn) [Example 4, ((R,S)-4-(4-(Amino-imino-methyl)phenyl)-3-benzyl-4-methyl-2,5-dioxoimidazolidin-1-yl)acetyl-L-aspartyl-L-phenylglycine], the IC50 came out at 1.1 µM.
With `C[C@]1(c2ccc(C(=N)N)cc2)C(=O)N(CC(=O)N[C@@H](CC(=O)O)C(=O)N[C@H](C(=O)O)c2ccccc2)C(=O)N1Cc1ccc2ccccc2c1` [Example 41, ((S)-4-(4-(Amino-imino-methyl)phenyl)-3-((2-naphthyl)methyl)-4-methyl-2,5-dioxoimidazolidin-1-yl)acetyl-L-aspartyl-L-phenylglycine], the IC50 was 0.28 µM.
Consider `CC1(c2ccc(C(=N)N)cc2)C(=O)N(CC(=O)N[C@@H](CC(=O)O)C(=O)N[C@H](C(=O)O)c2ccccc2)C(=O)N1Cc1ccccc1-c1ccccc1` (mixture of isomers) [Example 11, ((R,S)-4-(4-(Amino-imino-methyl)phenyl)-3-((2-biphenylyl)methyl)-4-methyl-2,5-dioxoimidazolidin-1-yl)acetyl-L-aspartyl-L-phenylglycine], for which the IC50 was 62 µM.
The compound `COc1ccc(C(CC(=O)O)NC(=O)CN2C(=O)N(Cc3ccccc3)C(C)(c3ccc(C(=N)N)cc3)C2=O)cc1OC` [Example 57, (R,S)-3-(((R,S)-4-(4-(Amino-imino-methyl)phenyl)-3-benzyl-methyl-2,5-dioxoimidazolidin-1-yl)acetylamino)-3-(3,4-dimethoxyphenyl)propionic acid] returned an IC50 of 17.5 µM.
Compound `C[C@@]1(c2ccc(C(=N)N)cc2)C(=O)N(CC(=O)N[C@@H](CC(=O)O)C(=O)N[C@H](C(=O)O)c2ccccc2)C(=O)N1Cc1ccc2ccccc2c1` [Example 9, ((R,S)-4-(4-(Amino-imino-methyl)phenyl)-3-((2-naphthyl)methyl)-4-methyl-2,5-dioxoimidazolidin-1-yl)acetyl-L-aspartyl-L-phenylglycine] yielded an IC50 of 0.5 µM.
Compound `N=C(N)c1ccc(C2(Cc3ccccc3)C(=O)N(CC(=O)N[C@@H](CC(=O)O)C(=O)N[C@H](C(=O)O)c3ccccc3)C(=O)N2Cc2ccccc2)cc1` (stereo partly drawn) [Example 20, ((R,S)-4-(4-(Amino-imino-methyl)phenyl)-3,4-dibenzyl-2,5-dioxo-imidazolidin-1-yl)acetyl-L-aspartyl-L-phenylglycine] yielded an IC50 of 2 µM.
The compound “((S)-4-(3-Guanidinopropyl)-3-benzyl-2,5-dioxoimidazolidin-1-yl)acetyl-D-glutamyl-L-phenylglycine-L-tyrosine hydrochloride [Example 40]” showed an IC50 of 27 µM.
As for `CN(C(=O)CN1C(=O)N(Cc2ccc(-c3ccccc3)cc2)C(C)(c2ccc(C(=N)N)cc2)C1=O)[C@@H](CC(=O)O)C(=O)N[C@H](C(=O)O)c1ccccc1` (stereo partly drawn) [Example 18, ((R,S)-4-(4-(Amino-imino-methyl)phenyl)-3-((4-biphenylyl)methyl)-4-methyl-2,5-dioxoimidazolidin-1-yl)acetyl-L-N-methyl-aspartyl-L-phenylglycine], the midpoint of inhibition, the IC50, lay at 0.09 µM.
For the compound `Cc1cc(C)cc(CN2C(=O)N(CC(=O)N[C@@H](CC(=O)O)C(=O)N[C@H](C(=O)O)c3ccccc3)C(=O)C2(C)c2ccc(C(=N)N)cc2)c1` (mixture of isomers) [Example 8, ((R,S)-4-(4-(Amino-imino-methyl)phenyl)-3-(3,5-dimethylbenzyl)-4-methyl-2,5-dioxoimidazolidin-1-yl)acetyl-L-aspartyl-L-phenylglycine], the half-inhibitory concentration (IC50) is 3.5 µM.
Under `CC1(c2ccc(C(=N)N)cc2)C(=O)N(CC(=O)N[C@@H](CC(=O)O)C(=O)N[C@H](C(=O)O)c2ccccc2)C(=O)N1Cc1cc(C(F)(F)F)cc(C(F)(F)F)c1` (mixture of isomers) [Example 16, ((R,S)-4-(4-(Amino-imino-methyl)phenyl)-3-(3,5-bis(trifluoromethyl)benzyl)4-methyl-2,5-dioxoimidazolidin-1-yl)acetyl-L-aspartyl-L-phenylglycine] stands 30 µM; under `CC1(c2ccc(C(=N)N)cc2)C(=O)N(CC(=O)N[C@@H](CC(=O)O)C(=O)N[C@H](C(=O)O)c2ccccc2)C(=O)N1Cc1ccc([N+](=O)[O-])cc1` (mixture of isomers) [Example 7, ((R,S)-4-(4-(Amino-imino-methyl)phenyl)-3-(4-nitrobenzyl)-4-methyl-2,5-dioxoimidazolidin-1-yl)acetyl-L-aspartyl-L-phenylglycine], 25 µM; under `CN(C(=O)CN1C(=O)N(Cc2ccccc2)C(C)(c2ccc(C(=N)N)cc2)C1=O)[C@@H](CC(=O)O)C(=O)N[C@H](C(=O)O)c1ccccc1` (mixture of isomers) [Example 19, ((R,S)-4-(4-(Amino-imino-methyl)phenyl)-3-benzyl-4-methyl-2,5-dioxo-imidazolidin-1-yl)acetyl-L-N-methyl-aspartyl-L-phenylglycine], 0.2 µM.
Turning to `N=C(N)NCCC[C@H]1C(=O)N(CC(=O)N[C@@H](CC(=O)O)C(=O)N[C@H](C(=O)O)c2ccccc2)C(=O)N1Cc1ccccc1` [Example 38, ((S)-4-(3-Guanidinopropyl)-3-benzyl-2,5-dioxoimidazolidin-1-yl)acetyl-L-aspartyl-L-phenylglycine], it took 45 µM to reach half-maximal inhibition (IC50).
The compound `NCCC[C@H]1C(=O)N(CC(=O)N[C@@H](CC(=O)O)C(=O)N[C@H](C(=O)O)c2ccccc2)C(=O)N1Cc1ccccc1` [Example 37, ((S)-4-(3-Aminopropyl)-3-benzyl-2,5-dioxoimidazolidin-1-yl)acetyl-L-aspartyl-L-phenylglycine] displayed an IC50 of 200 µM.
